According to patent US20140123342A1, “Regulation of Stomatal Apertures by Apyrases and Extracellular Nucleotides” (BOARD OF REGENTS, THE UNIVERSITY OF TEXAS SYSTEM, priority 2011, published 2014):

Tests used:
Format in all cases: cell-based, Arabidopsis thaliana
[1] = test system: stomata of nia1nia2 mutant leaves; assay: Stomatal closing studies with whole leaves of nia1nia2 mutant; conditions: 10 μM
Experimental: (§1) Stomatal Aperture Studies: Arabidopsis thaliana ecotypes Columbia (Col-0) and Wassilewskija (WS) were used as wild types in this study. Col-0, nia1nia2, atrbohD/F, R2-4A and WS plants were all grown on autoclaved Metro-Mix 200 soil at 22° C. under continuous light. The mutant seeds nia1nia2 nia2-5; CS 2356; Col-0 background) were obtained from Dr. N. M. Crawford (University of California at San Diego) and the mutant seeds atrbohD/F (Col-0 background) were obtained from Dr. J. M. Kwak (University of Maryland). The RNAi mutant apyrase line (R2-4A) is in WS background, so WS ecotype was used as the control wild type for these studies. […]
(§2) After treatment, photos of stomata were taken using a light microscope at 20×. Stomatal aperture width was measured using the image processing software ImageJ. Typically, photos were taken of 70 to 90 stomata per treatment of which only 50 stomata were measured for each treatment. For each treatment the ratio of closed stomata (width of 0) to open stomata was determined for all stomata imaged and this ratio was maintained in the 50 stomata that were measured for each treatment. Data shown uses apertures determined as width/length, however data in all studies also obtained as width only and generally width/length and width only data are in agreement with each other. […]

H2O2 in guard cells = assay: Detection and quantification of H2O2 (H2DCFDA fluorescence); conditions: 10 μM, leaf epidermal tissue, after 30 min
Experimental: (§3) Detection and Quantification of H2O2 and NO: Col-0 plants were grown on soil for 2 to 4 weeks under continuous light at 21° C. Plants were placed in the dark for 24 h to ensure closure and then transferred to the light for 1 h. After 1 h in the light, mature basal leaves were excised and blended in a Waring blender on the low setting for approximately 10 s to isolate epidermal tissues, and the tissues were placed in 3 mL of 30 mM KCl, 10 mM Mes-KOH, pH 6.16 buffer in light for 2 h (Pei et al., 2000; Murata et al., 2001). DAF-2 DA and H2DCFDA were dissolved in DMSO to produce 5 mM and 10 mM stock solutions, respectively, and these were stored at −20° C. in 30 μL, aliquots. Fifty μM H2DCFDA or 15 μM DAF-2 DA was added to the medium in the dark, and after 30 min, 10 μM ABA, 200 μM ATPγS, or buffer (ATP control) was also added to the medium in the dark for 30 min. Peels were then rinsed by decanting the treatment solution and adding 3 mL fresh leaf buffer to the peels. Peels were rinsed twice as described. A peel from each of the three treatments (ABA, ATPγS and buffer) were placed on the same microscope slide and observed sequentially. A second study was staggered 30 to 45 min after the first by loading the H2DCFDA or DAF-2 DA dye to new peels 30 to 45 min after the first round of dye was added. Confocal laser scanning microscopy (CLSM) was performed with a Leica SP2 AOBS confocal microscope (Leica Microsystems, Bannockburn, Ill., USA). Laser power was set at 15%, with an excitation of 488 nm and an emission of 525 nm. A series of 0.5 μm optical sections with average intensity projection along the z axis were collected and made into one 2D image with greater focal depth. All images were obtained with the same software scanning settings including detector gain and laser intensity settings.

[2] = test system: stomata of atrbohD/F mutant leaves; assay: Stomatal closing studies with whole leaves of atrbohD/F mutant; conditions: 10 μM
Experimental: as §1, §2

[3] = test system: stomata (guard cells) in epidermal peels; assay: Stomatal aperture closure studies, epidermal peels in the light; conditions: 10 μM, epidermal peels, light, 1 h
Experimental: Stomatal Aperture Studies: Arabidopsis thaliana ecotypes Columbia (Col-0) and Wassilewskija (WS) were used as wild types in this study. Col-0, nia1nia2, atrbohD/F, R2-4A and WS plants were all grown on autoclaved Metro-Mix 200 soil at 22° C. under continuous light. The mutant seeds nia1nia2 nia2-5; CS 2356; Col-0 background) were obtained from Dr. N. M. Crawford (University of California at San Diego) and the mutant seeds atrbohD/F (Col-0 background) were obtained from Dr. J. M. Kwak (University of Maryland). The RNAi mutant apyrase line (R2-4A) is in WS background, so WS ecotype was used as the control wild type for these studies. Leaves from 2 to 3 week old Col-0 plants, or R2-4A and WS plants treated with 4 μM estradiol for 1 week after development of mature basal leaves were used for peel and whole leaf studies. Plants were placed in the dark and watered 24 h before an study. For opening studies, plants were used immediately after 24 h dark treatment and all treatments were done in the dark except for the light treated leaves or peels, thus the control stomata are dark controls. For closure studies, plants were placed in the light 3 h before an study to induce stomatal opening and all treatments were done in the light, thus the control stomata are light controls. For peel studies, epidermal peels were made from the underside of the leaf and treatments were applied to the peels for 1 h. For whole leaf studies, leaves were removed and treatments were applied for 2 h. For each treatment, about 3 or 4 peels collected from different leaves or 3 or 4 different leaves of at least two different plants were floated with the abaxial side up in petri dishes on 3 mL of Arabidopsis leaf buffer consisting of 10 mM KCl, 25 mM MES pH 6.15 (Melotto et al., 2006) and the chemical being tested. For whole leaf studies peels were collected after the treatment.
For studies testing the effects of ATPγS, ADPγS, AMPS, RB2, and PPADS (Sigma, St. Louis, Mo., USA) 20 mM stocks were made by dissolving the compounds in de-ionized water. For studies testing the effects of apyrase inhibitors, 7.5 mg/mL of NGXT191 and of inhibitor #13 (Windsor et al., 2002) was dissolved in dimethyl sulfoxide (DMSO) and then applied at a dilution of […] for a final concentration of 0.1% DMSO. ABA (Sigma, St. Louis, Mo., USA) was dissolved in ethanol in 10 mM stocks and then applied at a dilution of 1:1000. The stocks were stored at −20° C. while not in use. The production of the anti-AtAPY1 antibodies used is described by Steinebrunner et al. (2003). The crude immune and pre-immune sera were purified using protein A-Sepharose following the protocol described by Martin (1982) with the slight modification that the buffers used were azide-free. The protein-A purified sera were both used at a 1:1000 dilution in leaf stomatal aperture studies. The concentration of the immune and pre-immune sera, determined by Bradford assay (Bio-Rad), was 10.2 μg/mL and 7.7 μg/mL, respectively.
After treatment, photos of stomata were taken using a light microscope at 20×. Stomatal aperture width was measured using the image processing software ImageJ. Typically, photos were taken of 70 to 90 stomata per treatment of which only 50 stomata were measured for each treatment. For each treatment the ratio of closed stomata (width of 0) to open stomata was determined for all stomata imaged and this ratio was maintained in the 50 stomata that were measured for each treatment. Data shown uses apertures determined as width/length, however data in all studies also obtained as width only and generally width/length and width only data are in agreement with each other. Statistical significance of the measurements for the treatments was determined using the Student's t test in Microsoft Excel.

NO in guard cells = assay: Detection and quantification of NO (DAF-2 DA fluorescence); conditions: 10 μM, leaf epidermal tissue, after 45 min
Experimental: as §3

## CC1=CC(=O)CC(C)(C)[C@@]1(O)/C=C/C(C)=C\C(=O)O [ABA, abscisic acid]
[1]
  effect on stomatal aperture: no effect on stomatal aperture
H2O2 in guard cells
  increase in H2DCFDA fluorescence in guard cells: 3 fold
[2]
  effect on stomatal aperture: no effect on stomatal aperture
[3]
  effect on stomatal aperture: induced stomatal closure
NO in guard cells
  increase in DAF-2 DA fluorescence in guard cells: 2.5 fold
